From patent publication US10745395B2, “Compounds for their use as drugs for the treatment and/or the prevention of infection(s) caused by biofilm-forming bacteria” (CENTRE NATIONAL DE LA RECHERCHE SCIENTIFIQUE, priority 2014, dated 2020)

Legend:
Assay type in all cases: cell-based, Pseudomonas aeruginosa
[1] = system: P. aeruginosa strain PAR 5; assay: Number of viable bacteria in early and mature biofilm (viable count)
Procedure: (§1) Biofilm formation and the number of viable bacteria were checked in parallel in the following time intervals: 0, 0.5, 8, 24, 48 hours, in accordance with the procedure described above. Biofilm thickness was estimated by staining it with Cango Red and measuring optical density while number of viable bacteria was performed using the standard viable count method. (Allison G C, Sutherland I W. A staining technique for bacteria and its correlation to extracellular carbohydrate production. J Microbiol Meth 2, 93-99 (1984)).
(§2) After the addition of iminosugars (compounds 1, 2, 3 and 4), the biofilm formation and the number of viable bacteria were checked in the following time intervals: 48, 48.5, 56, 72, 96 hours.
(§3) Numbers of viable bacteria contained in the early and mature biofilm were estimated on separate plates with wells filled with tested P. aeruginosa strains as described above (PAR 5, PAR 20, PAR 50).
(§4) At the same time intervals, biofilm content in each well was removed and mixed by multiple pippeting and transferred to sterile tubes. Then decimal dilutions of the bacterial suspension were made in TSB broth, plated on McConkey Agar (Oxoid), and incubated at 37° C. for 24 hours.
(§5) Numbers of colonies grown on platter were counted and total numbers of the viable bacteria calculated as colony forming units (CFU) per ml.
(§6) The results depict logs of CFU/ml for three P. aeruginosa strains: PAR 5, PAR 20 and PAR 50 measured at different time intervals (0 hours, 8 hours, 24 hours, 48 hours, 56 hours, 72 hours and 96 hours). The detection limit is 100 CFU/ml.

[2] = system: P. aeruginosa strain PAR 20; assay: as above
Procedure: as §1, §2, §3, §4, §5, §6

[3] = system: P. aeruginosa strain PAR 50; assay: as above
Procedure: as §1, §2, §3, §4, §5, §6

[4] = system: P. aeruginosa strain PAR 5 biofilm; assay: Early biofilm model, Congo red staining; details: for absorbance (Congo red, biofilm formation): 0.9 mM, 492 nm
Procedure: (§7) P. aeruginosa biofilm was set-up in sterile plastic 96-well plates with adherent surface (Greiner Bio-One, USA).
(§8) Twenty microliter quantities of the bacterial stock suspensions, prepared as described above, were added to each well followed with 180 μl of sterile TSB. Final concentration of the bacteria was 1×10^8 CFU/ml.
(§9) The plates were centrifuged for 10 minutes at 2000 rpm to sediment bacteria on the bottom of each well and then incubated for 72 hours (37° C., aerobic conditions).
(§10) Biofilm quantity was determined using Congo red dye according to a modified procedure described by Allison et al. (Allison G C, Sutherland I W. A staining technique for bacteria and its correlation to extracellular carbohydrate production. J Microbiol Meth 2, 93-99 (1984)).
(§11) Briefly, at different time points (0, 6, 18, 24, 48 and 72 hours), the culture medium was gently removed from wells by using the pipette and immediately 200 μl of 0.1% Congo red solution was added. The plates were left for 30 minutes at room temperature and then 10 minutes before the end of staining, the plate was centrifuged for 10 minutes at 2000 rpm and then washed twice with buffered saline to remove unbound dye. Absorbance was measured at λ=492 nm wavelength using spectrophotometer (Awarness Technology Inc., Palm City, Fla., USA). All measurements were performed in triplicates and mean values±SD are given.
(§12) Early biofilm model: formation of early biofilm under influence of the tested substances was observed by filling wells of a 96-well plate with 20 μl of P. aeruginosa suspension and 180 μl of TSB, as described above. Tested iminosugars (compounds 1, 2, 3 and 4) were added immediately after setting-up the bacteria at a final concentration of 0.9 mM. Then, the plate was gently mixed and incubated for 48 hours at 37° C.
as §1
(§13) P. aeruginosa suspension cultures in TSB broth alone were used as a control.

[5] = system: P. aeruginosa strain PAR 50 biofilm; assay: Early biofilm model, Congo red staining; details: for absorbance (Congo red, biofilm formation): early biofilm, 0.9 mM, 492 nm
Procedure: as §7, §8, §9, §10, §11, §12, §1, §13

[6] = system: P. aeruginosa strain PAR 20 biofilm; assay: Early biofilm model, Congo red staining; details: for absorbance (Congo red, biofilm formation): early biofilm, 0.9 mM, 492 nm
Procedure: as §7, §8, §9, §10, §11, §12, §1, §13

[7] = system: P. aeruginosa strain PAR 20 biofilm; assay: Reduction of biofilm growth (percent vs culture control)
Excerpt: FIG. 4B represents the effect of the tested compounds (1, 2, 3 and 4) on exopolysaccharide biosynthesis in the early stages and mature P. aeruginosa biofilm formation, strain PAR 20. The abscissa represents the time (in hours) in order to differentiate early biofilm and mature biofilm, and the ordinate represents the percentage of the biofilm reduction.
as §12
(§14) Mature biofilm model: the tested substances were added 48 hours after adherence of bacteria to the wells in a 96-well plate. The growth conditions of P. aeruginosa were exactly the same, as described above for the early biofilm model.
(§15) The effect of the tested compounds (1, 2, 3 and 4) on the reduction of biofilm growth has also been studied on the three P. aeruginosa strains PAR 5, PAR 20, PAR 50.
(§16) (Percent decrease in biofilm thickness was obtained as a mean value from 3 consecutive measurements of the Congo Red stained biofilm using spectrophotometer after addition of the tested iminosugars in comparison to control regarded as 100%).

[8] = system: P. aeruginosa strain PAR 50 biofilm; assay: as above
Excerpt: FIG. 4C represents the effect of the tested compounds (1, 2, 3 and 4) on exopolysaccharide biosynthesis in the early stages and mature P. aeruginosa biofilm formation, strain PAR 50. The abscissa represents the time (in hours) in order to differentiate early biofilm and mature biofilm, and the ordinate represents the percentage of the biofilm reduction.
as §12, §14, §15, §16

[9] = system: P. aeruginosa strain PAR 5 biofilm; assay: Mature biofilm model, Congo red staining; details: for absorbance (Congo red, biofilm development): mature biofilm, compound added 48 h after induction of biofilm
Procedure: as §10, §11, §14, §2

[10] = system: P. aeruginosa strain PAR 50 biofilm; assay: Mature biofilm model, Congo red staining; details: for absorbance (Congo red, biofilm development): mature biofilm, compound added 48 h after induction of biofilm
Procedure: as §10, §11, §14, §2

[11] = system: P. aeruginosa strain PAR 20 biofilm; assay: Mature biofilm model, Congo red staining; details: for absorbance (Congo red, biofilm development): mature biofilm, compound added 48 h after induction of biofilm
Procedure: as §10, §11, §14, §2

[12] = system: P. aeruginosa strain PAR 5 biofilm; assay: Reduction of biofilm growth (percent vs culture control)
Excerpt: FIG. 4A represents the effect of the tested compounds (1, 2, 3 and 4) on exopolysaccharide biosynthesis in the early stages and mature P. aeruginosa biofilm formation, strain PAR 5. The abscissa represents the time (in hours) in order to differentiate early biofilm and mature biofilm, and the ordinate represents the percentage of the biofilm reduction.
as §12, §14, §15, §16

[13] = in comparison with culture control

OCC(O)C[C@H]1NC[C@H](O)[C@H](O)[C@H]1O (stereo partly drawn) [Compound 2, β-1-C-(2,3-dihydroxypropyl)-1,5-dideoxy-1,5-imino-L-arabinitol]
number of viable P. aeruginosa ([1]; early biofilm, 0 h): 8 × 10^6 CFU/ml
number of viable P. aeruginosa ([1]; early biofilm, 8 h): 2 × 10^7 CFU/ml
number of viable P. aeruginosa ([1]; early biofilm, 24 h): 1 × 10^7 CFU/ml
number of viable P. aeruginosa ([1]; early biofilm, 48 h): 1 × 10^7 CFU/ml
number of viable P. aeruginosa ([1]; mature biofilm, 56 h): 4 × 10^8 CFU/ml
number of viable P. aeruginosa ([1]; mature biofilm, 72 h): 2 × 10^8 CFU/ml
number of viable P. aeruginosa ([1]; mature biofilm, 96 h): 5 × 10^8 CFU/ml
number of viable P. aeruginosa ([2]; early biofilm, 0 h): 2 × 10^6 CFU/ml
number of viable P. aeruginosa ([2]; early biofilm, 8 h): 4 × 10^7 CFU/ml
number of viable P. aeruginosa ([2]; early biofilm, 24 h): 3 × 10^8 CFU/ml
number of viable P. aeruginosa ([2]; early biofilm, 48 h): 1 × 10^9 CFU/ml
number of viable P. aeruginosa ([2]; mature biofilm, 56 h): 4 × 10^8 CFU/ml
number of viable P. aeruginosa ([2]; mature biofilm, 72 h): 3 × 10^7 CFU/ml
number of viable P. aeruginosa ([2]; mature biofilm, 96 h): 3 × 10^8 CFU/ml
number of viable P. aeruginosa ([3]; early biofilm, 0 h): 3 × 10^7 CFU/ml
number of viable P. aeruginosa ([3]; early biofilm, 8 h): 2 × 10^8 CFU/ml
number of viable P. aeruginosa ([3]; early biofilm, 24 h): 7 × 10^8 CFU/ml
number of viable P. aeruginosa ([3]; early biofilm, 48 h): 1 × 10^8 CFU/ml
number of viable P. aeruginosa ([3]; mature biofilm, 56 h): 6 × 10^9 CFU/ml
number of viable P. aeruginosa ([3]; mature biofilm, 72 h): 1 × 10^9 CFU/ml
number of viable P. aeruginosa ([3]; mature biofilm, 96 h): 9 × 10^9 CFU/ml
biofilm formation at 8 hours, 24 hours and 48 hours ([4]; early biofilm): no biofilm formation
absorbance (Congo red, biofilm formation) ([4]; early biofilm, 8 hours): about 0.25 a.u.
absorbance (Congo red, biofilm formation) ([4]; early biofilm, 24 hours): about 0.25 a.u.
absorbance (Congo red, biofilm formation) ([4]; early biofilm, 48 hours): about 0.25 a.u.
effect on formation of an early biofilm [4, 13]: inhibit the formation of an early biofilm
absorbance (Congo red, biofilm formation) ([5]; 8 hours): about 0.8 a.u.
absorbance (Congo red, biofilm formation) ([5]; 24 hours): about 0.7 a.u.
absorbance (Congo red, biofilm formation) ([5]; 48 hours): about 1.1 a.u.
effect on formation of an early biofilm [5, 13]: inhibit the formation of an early biofilm
absorbance (Congo red, biofilm formation) ([6]; 8 hours): about 0.75 a.u.
absorbance (Congo red, biofilm formation) ([6]; 24 hours): about 0.9 a.u.
absorbance (Congo red, biofilm formation) ([6]; 48 hours): about 0.9 a.u.
effect on formation of an early biofilm [6, 13]: inhibit the formation of an early biofilm
reduction of biofilm growth ([7]; 8 hours of incubation): about 45%
reduction of biofilm growth ([7]; 24 hours of incubation): about 45%
reduction of biofilm growth ([7]; 48 hours of incubation): about 0%
reduction of biofilm growth ([7]; 72 hours of incubation): about 0%
effect on biofilm growth ([7]; notably an early biofilm): can reduce the biofilm growth
reduction of biofilm growth ([8]; 8 hours of incubation): about 50%
reduction of biofilm growth ([8]; 24 hours of incubation): about 70%
reduction of biofilm growth ([8]; 48 hours of incubation): about 0%
reduction of biofilm growth ([8]; 72 hours of incubation): about 20%
effect on biofilm growth ([8]; notably an early biofilm): can reduce the biofilm growth
influence on mature biofilm formation [9]: weak influence
absorbance (Congo red, biofilm development) ([9]; 48 hours): about 0.75 a.u.
absorbance (Congo red, biofilm development) ([9]; 56 hours): about 1.0 a.u.
absorbance (Congo red, biofilm development) ([9]; 72 hours): about 1.25 a.u.
absorbance (Congo red, biofilm development) ([9]; 96 hours): about 1.5 a.u.
influence on mature biofilm formation [10]: weak influence
absorbance (Congo red, biofilm development) ([10]; 48 hours): about 2.0 a.u.
absorbance (Congo red, biofilm development) ([10]; 56 hours): about 1.75 a.u.
absorbance (Congo red, biofilm development) ([10]; 72 hours): about 1.75 a.u.
absorbance (Congo red, biofilm development) ([10]; 96 hours): about 2.0 a.u.
influence on mature biofilm formation [11]: weak influence
absorbance (Congo red, biofilm development) ([11]; 48 hours): about 0.6 a.u.
absorbance (Congo red, biofilm development) ([11]; 56 hours): about 0.7 a.u.
absorbance (Congo red, biofilm development) ([11]; 72 hours): about 1.1 a.u.
absorbance (Congo red, biofilm development) ([11]; 96 hours): about 2.0 a.u.
reduction of biofilm growth ([12]; 8 hours of incubation): about 90%
reduction of biofilm growth ([12]; 24 hours of incubation): about 90%
reduction of biofilm growth ([12]; 48 hours of incubation): about 25%
reduction of biofilm growth ([12]; 72 hours of incubation): about 10%
effect on biofilm growth ([12]; notably an early biofilm): can reduce the biofilm growth
